Values quoted from earlier work in patent US20100119576A1, “USE OF ONE OR MORE OF THE ELEMENTS FROM THE GROUP YTTRIUM, NEODYMIUM AND ZIRCONIUM, AND PHARMACEUTICAL COMPOSITIONS WHICH CONTAIN THOSE ELEMENTS” (BIOTRONIK VI PATENT AG, priority 2002, published 2010).

Tested on: Klebsiella pneumoniae strain 204 and K9
Conditions: 142 mM Y(OH)3

Q: For `[OH-].[OH-].[OH-].[Y+3]` [Y(OH)3], which “proliferation of K. pneumoniae” value is on record?
A: increased proliferation
